{"source": "ChEMBL document CHEMBL1144852", "about": "“Optimization of a dihydropyrrolopyrazole series of transforming growth factor-beta type I receptor kinase domain inhibitors: discovery of an orally bioavailable transforming growth factor-beta receptor type I inhibitor as antitumor agent” (J Med Chem, 2008)", "key": {"[1]": {"target": "Proto-oncogene tyrosine-protein kinase Src (Homo sapiens) (UniProt P12931)", "test": "Inhibition of cSRC at 20 uM"}, "[2]": {"target": "Ribosomal protein S6 kinase beta-1 (Homo sapiens) (UniProt P23443)", "sequence (P23443 whole entry, looked up)": "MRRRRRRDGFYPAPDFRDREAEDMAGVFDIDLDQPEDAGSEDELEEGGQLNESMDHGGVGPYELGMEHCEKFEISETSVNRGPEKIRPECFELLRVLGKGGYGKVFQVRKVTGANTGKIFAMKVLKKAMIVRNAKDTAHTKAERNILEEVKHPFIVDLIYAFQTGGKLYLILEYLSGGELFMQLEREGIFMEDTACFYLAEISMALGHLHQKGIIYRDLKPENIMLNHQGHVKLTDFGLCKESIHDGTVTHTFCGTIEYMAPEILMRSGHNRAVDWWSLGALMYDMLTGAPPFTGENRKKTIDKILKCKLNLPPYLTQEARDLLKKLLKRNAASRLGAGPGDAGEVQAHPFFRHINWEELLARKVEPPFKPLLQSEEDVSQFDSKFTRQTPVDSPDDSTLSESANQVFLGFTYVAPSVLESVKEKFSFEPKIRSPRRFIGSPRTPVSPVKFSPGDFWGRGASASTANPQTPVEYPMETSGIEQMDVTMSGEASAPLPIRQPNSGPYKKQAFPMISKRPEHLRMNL", "test": "Inhibition of p70S6K at 20 uM"}, "[3]": {"test": "AUC in rat at 10 mg/kg, po after 24 hrs", "type": "ADME, organism-based", "parameters": "time < 24 hr, dose 10 mg/kg, route oral", "settings": "plasma"}, "[4]": {"target": "Dual specificity mitogen-activated protein kinase kinase 7 (Homo sapiens) (UniProt O14733)", "sequence (O14733 whole entry)": "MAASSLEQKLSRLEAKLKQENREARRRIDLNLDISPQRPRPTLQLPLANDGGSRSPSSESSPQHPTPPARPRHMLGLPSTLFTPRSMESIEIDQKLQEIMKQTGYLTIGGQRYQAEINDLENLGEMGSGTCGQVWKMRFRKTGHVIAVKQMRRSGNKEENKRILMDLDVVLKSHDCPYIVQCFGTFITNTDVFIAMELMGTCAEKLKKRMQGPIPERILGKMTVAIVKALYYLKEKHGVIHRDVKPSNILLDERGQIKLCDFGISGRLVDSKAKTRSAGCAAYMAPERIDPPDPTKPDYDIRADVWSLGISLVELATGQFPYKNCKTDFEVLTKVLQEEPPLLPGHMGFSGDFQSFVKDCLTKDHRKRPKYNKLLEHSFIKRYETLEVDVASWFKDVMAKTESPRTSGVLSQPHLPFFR", "test": "Inhibition of MKK7-beta at 20 uM"}, "Mus musculus [5]": {"tested_on": "Mus musculus", "test": "Inhibition of TGFbeta type receptor 1 in human Calu6 cells xenografted mouse at 50 mg/kg, po by single point IVTI assay", "type": "functional, Calu-6", "parameters": "scale not given: the % may be the effect or the level left"}, "[6]": {"test": "Metabolic stability in rat microsomes", "type": "ADME, Microsome"}, "[7]": {"target": "Serine/threonine-protein kinase Chk1 (Homo sapiens) (UniProt O14757)", "test": "Inhibition of Chk1 at 20 uM"}, "[8]": {"target": "Mitogen-activated protein kinase 13 (Homo sapiens) (UniProt O15264)", "test": "Inhibition of Sapk4 at 20 uM"}, "[9]": {"test": "Inhibition of CK2 at 20 uM"}, "[10]": {"target": "Serine/threonine-protein kinase Chk2 (Homo sapiens) (UniProt O96017)", "test": "Inhibition of Chk2 at 20 uM"}, "[11]": {"target": "Tyrosine-protein kinase Blk (Homo sapiens) (UniProt P51451)", "test": "Inhibition of Blk at 20 uM"}, "MX1": {"tested_on": "MX1", "test": "Effect on tumor growth delay in human MX1 cells xenografted in mouse administered 75 mg/kg, po twice a day after 7 days of inoculation for 20 days", "type": "functional, organism-based", "parameters": "dose 75 mg/kg"}, "[12]": {"target": "Serine/threonine-protein kinase N2 (Homo sapiens) (UniProt Q16513)", "test": "Inhibition of PRK2 at 20 uM"}, "[13]": {"target": "Serine/threonine-protein kinase Sgk1 (Homo sapiens) (UniProt O00141)", "test": "Inhibition of SGK at 20 uM"}, "[14]": {"target": "Mitogen-activated protein kinase 10 (Homo sapiens) (UniProt P53779)", "test": "Inhibition of JNK3 at 20 uM"}, "[15]": {"target": "Ribosomal protein S6 kinase alpha-5 (Homo sapiens) (UniProt O75582)", "test": "Inhibition of MSK1 at 20 uM"}, "[16]": {"target": "Mitogen-activated protein kinase 11 (Homo sapiens) (UniProt Q15759)", "sequence (Q15759 whole entry)": "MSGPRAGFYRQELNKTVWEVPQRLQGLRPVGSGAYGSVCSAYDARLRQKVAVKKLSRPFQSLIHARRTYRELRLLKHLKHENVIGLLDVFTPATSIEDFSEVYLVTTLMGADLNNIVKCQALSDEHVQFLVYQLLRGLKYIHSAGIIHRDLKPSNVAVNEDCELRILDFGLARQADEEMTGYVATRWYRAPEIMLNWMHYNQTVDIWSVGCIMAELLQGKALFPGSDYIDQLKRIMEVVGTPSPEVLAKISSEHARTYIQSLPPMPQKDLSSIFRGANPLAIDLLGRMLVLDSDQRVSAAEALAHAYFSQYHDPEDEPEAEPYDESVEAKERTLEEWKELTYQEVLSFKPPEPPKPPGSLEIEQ", "test": "Inhibition of Sapk2-beta at 20 uM"}, "[17]": {"target": "RAF proto-oncogene serine/threonine-protein kinase (Homo sapiens) (UniProt P04049)", "test": "Inhibition of cRaf at 20 uM"}, "[18]": {"target": "Tyrosine-protein kinase Fyn (Homo sapiens) (UniProt P06241)", "sequence (P06241 2-537 limits assumed)": "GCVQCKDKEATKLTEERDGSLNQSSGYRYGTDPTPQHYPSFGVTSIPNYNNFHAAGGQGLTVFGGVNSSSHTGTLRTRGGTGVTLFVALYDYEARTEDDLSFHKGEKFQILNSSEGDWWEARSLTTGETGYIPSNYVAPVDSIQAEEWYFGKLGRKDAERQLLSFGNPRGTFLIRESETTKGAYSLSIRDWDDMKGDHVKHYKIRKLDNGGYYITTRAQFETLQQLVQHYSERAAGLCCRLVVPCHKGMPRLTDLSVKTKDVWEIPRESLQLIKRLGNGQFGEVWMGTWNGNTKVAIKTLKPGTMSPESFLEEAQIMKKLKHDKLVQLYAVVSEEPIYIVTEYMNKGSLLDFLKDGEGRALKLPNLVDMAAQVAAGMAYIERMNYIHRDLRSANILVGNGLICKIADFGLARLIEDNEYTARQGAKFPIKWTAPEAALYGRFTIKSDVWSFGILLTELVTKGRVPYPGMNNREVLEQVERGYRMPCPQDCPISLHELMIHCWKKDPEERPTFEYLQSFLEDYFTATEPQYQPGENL", "test": "Inhibition of Fyn at 20 uM"}, "NIH3T3": {"tested_on": "NIH3T3", "test": "Antiproliferative activity against mouse NIH3T3 cells by [3H]thymidine assay", "type": "functional, cell-based"}, "[19]": {"target": "Tyrosine-protein kinase Lck (Homo sapiens) (UniProt P06239)", "sequence (P06239 2-509 limits assumed)": "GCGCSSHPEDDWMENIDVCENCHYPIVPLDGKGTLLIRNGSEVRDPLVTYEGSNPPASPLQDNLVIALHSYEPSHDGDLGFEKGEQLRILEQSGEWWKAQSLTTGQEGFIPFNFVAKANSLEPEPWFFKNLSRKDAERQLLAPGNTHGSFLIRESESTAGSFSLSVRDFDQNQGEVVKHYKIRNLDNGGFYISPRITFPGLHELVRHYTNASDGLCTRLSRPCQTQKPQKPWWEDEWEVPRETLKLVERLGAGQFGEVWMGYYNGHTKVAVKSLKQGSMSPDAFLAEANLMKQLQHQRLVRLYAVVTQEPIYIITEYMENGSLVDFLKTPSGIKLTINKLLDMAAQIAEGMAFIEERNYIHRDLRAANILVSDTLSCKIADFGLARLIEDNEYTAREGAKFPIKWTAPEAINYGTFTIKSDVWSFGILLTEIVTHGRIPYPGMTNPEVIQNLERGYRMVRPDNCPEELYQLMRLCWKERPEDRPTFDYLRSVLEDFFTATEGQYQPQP", "test": "Inhibition of Lck at 20 uM"}, "[20]": {"target": "Mitogen-activated protein kinase 12 (Homo sapiens) (UniProt P53778)", "test": "Inhibition of Sapk3 at 20 uM"}, "Mus musculus [21]": {"tested_on": "Mus musculus", "test": "Inhibition of TGFbeta type receptor 1 in orally dosed human Calu6 cells xenografted mouse by IVTI […] assay", "type": "functional, organism-based", "settings": "Calu-6"}, "[22]": {"target": "Protein kinase C alpha type (Homo sapiens) (UniProt P17252)", "test": "Inhibition of PKCalpha at 20 uM"}, "[23]": {"target": "Dual specificity mitogen-activated protein kinase kinase 6 (Homo sapiens) (UniProt P52564)", "test": "Inhibition of MKK6 at 20 uM"}, "[24]": {"target": "Fibroblast growth factor receptor 3 (Homo sapiens) (UniProt P22607)", "test": "Inhibition of FGFR3 at 20 uM"}, "[25]": {"target": "Cyclin-dependent kinase 1 (Homo sapiens) (UniProt P06493)", "test": "Inhibition of CDK1 at 20 uM"}, "Mus musculus [26]": {"tested_on": "Mus musculus", "test": "Inhibition of TGFbeta type receptor 1 in human Calu6 cells xenografted mouse at 75 mg/kg, po after 4 hrs by IVTI pharmacodynamic assay", "type": "functional", "settings": "Calu-6, 4 h"}, "[27]": {"test": "Inhibition of CaMK2 at 20 uM"}, "[28]": {"target": "MAP kinase-activated protein kinase 5 (Homo sapiens) (UniProt Q8IW41)", "sequence (Q8IW41 whole entry)": "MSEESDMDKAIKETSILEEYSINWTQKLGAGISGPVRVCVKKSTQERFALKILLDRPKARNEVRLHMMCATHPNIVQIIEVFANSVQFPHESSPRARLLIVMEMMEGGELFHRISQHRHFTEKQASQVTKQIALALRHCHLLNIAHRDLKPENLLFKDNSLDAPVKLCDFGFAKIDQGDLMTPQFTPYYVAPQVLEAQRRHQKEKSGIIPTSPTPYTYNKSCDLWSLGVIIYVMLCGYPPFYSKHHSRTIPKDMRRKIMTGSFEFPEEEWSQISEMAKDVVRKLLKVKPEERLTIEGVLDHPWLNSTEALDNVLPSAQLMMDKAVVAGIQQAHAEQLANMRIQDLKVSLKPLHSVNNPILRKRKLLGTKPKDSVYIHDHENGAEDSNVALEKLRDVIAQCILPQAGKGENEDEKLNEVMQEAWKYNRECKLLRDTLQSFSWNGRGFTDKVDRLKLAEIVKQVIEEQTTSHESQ", "test": "Inhibition of PRAK at 20 uM"}, "[29]": {"target": "Vascular endothelial growth factor receptor 2 (Homo sapiens) (UniProt P35968)", "test": "Inhibition of KDR at 20 uM"}, "[30]": {"target": "Mitogen-activated protein kinase 1 (Homo sapiens) (UniProt P28482)", "test": "Inhibition of MAPK1 at 20 uM"}, "[31]": {"target": "Tyrosine-protein kinase ZAP-70 (Homo sapiens) (UniProt P43403)", "test": "Inhibition of ZAP70 at 20 uM"}, "[32]": {"test": "Inhibition of PKA at 20 uM"}, "[33]": {"target": "Dual specificity mitogen-activated protein kinase kinase 1 (Homo sapiens) (UniProt Q02750)", "test": "Inhibition of Mek1 at 20 uM"}, "[34]": {"target": "RAC-alpha serine/threonine-protein kinase (Homo sapiens) (UniProt P31749)", "sequence (P31749 whole entry)": "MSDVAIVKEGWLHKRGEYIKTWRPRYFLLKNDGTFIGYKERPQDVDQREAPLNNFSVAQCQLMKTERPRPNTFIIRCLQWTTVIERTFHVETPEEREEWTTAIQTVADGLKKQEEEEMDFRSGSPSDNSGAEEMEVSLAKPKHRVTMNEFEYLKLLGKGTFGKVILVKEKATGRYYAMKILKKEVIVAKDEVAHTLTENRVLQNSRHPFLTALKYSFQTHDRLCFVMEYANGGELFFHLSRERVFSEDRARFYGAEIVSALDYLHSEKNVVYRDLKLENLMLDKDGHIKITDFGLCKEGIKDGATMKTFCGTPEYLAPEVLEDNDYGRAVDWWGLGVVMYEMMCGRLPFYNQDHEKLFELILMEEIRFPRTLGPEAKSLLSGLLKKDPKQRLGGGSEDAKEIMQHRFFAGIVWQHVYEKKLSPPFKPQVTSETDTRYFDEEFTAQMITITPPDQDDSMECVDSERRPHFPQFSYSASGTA", "test": "Inhibition of PKBalpha at 20 uM"}, "[35]": {"target": "Glycogen synthase kinase-3 beta (Homo sapiens) (UniProt P49841)", "sequence (P49841 whole entry, looked up)": "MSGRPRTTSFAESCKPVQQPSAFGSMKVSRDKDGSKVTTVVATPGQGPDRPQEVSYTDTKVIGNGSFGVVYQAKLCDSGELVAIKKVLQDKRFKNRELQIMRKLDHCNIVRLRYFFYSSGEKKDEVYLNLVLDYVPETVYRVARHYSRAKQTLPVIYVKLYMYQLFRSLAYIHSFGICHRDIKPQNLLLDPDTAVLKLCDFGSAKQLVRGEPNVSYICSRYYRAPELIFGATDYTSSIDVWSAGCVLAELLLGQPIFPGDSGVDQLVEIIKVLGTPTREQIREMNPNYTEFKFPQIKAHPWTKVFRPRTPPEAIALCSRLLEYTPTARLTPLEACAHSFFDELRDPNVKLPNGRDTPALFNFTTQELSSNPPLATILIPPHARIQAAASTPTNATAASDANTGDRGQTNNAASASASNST", "test": "Inhibition of GSK3-beta at 20 uM"}, "[36]": {"target": "Rho-associated protein kinase 2 (Homo sapiens) (UniProt O75116)", "test": "Inhibition of Rock2 at 20 uM"}, "Liver microsomes": {"tested_on": "Liver microsomes", "test": "Metabolic stability in human liver microsomes", "type": "ADME, Microsome"}, "[37]": {"target": "Dual specificity mitogen-activated protein kinase kinase 4 (Homo sapiens) (UniProt P45985)", "sequence (P45985 whole entry)": "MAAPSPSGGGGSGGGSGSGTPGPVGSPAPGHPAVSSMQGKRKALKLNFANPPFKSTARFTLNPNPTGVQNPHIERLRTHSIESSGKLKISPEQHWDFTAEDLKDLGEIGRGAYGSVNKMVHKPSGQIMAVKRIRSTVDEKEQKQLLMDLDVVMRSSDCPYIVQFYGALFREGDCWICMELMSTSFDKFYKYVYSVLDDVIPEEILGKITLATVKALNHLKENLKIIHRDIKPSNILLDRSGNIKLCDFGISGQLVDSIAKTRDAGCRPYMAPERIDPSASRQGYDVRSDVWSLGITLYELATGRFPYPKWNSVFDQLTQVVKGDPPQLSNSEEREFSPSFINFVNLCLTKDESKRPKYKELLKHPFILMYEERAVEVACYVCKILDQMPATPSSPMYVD", "test": "Inhibition of MKK4 at 20 uM"}, "[38]": {"target": "5'-AMP-activated protein kinase subunit beta-1 (Homo sapiens) (UniProt Q9Y478)", "test": "Inhibition of AMPK at 20 uM"}, "[39]": {"target": "MAP kinase-activated protein kinase 2 (Homo sapiens) (UniProt P49137)", "test": "Inhibition of MAPKAPK2 at 20 uM"}, "[40]": {"target": "Protein kinase C delta type (Homo sapiens) (UniProt Q05655)", "test": "Inhibition of PKCdelta at 20 uM"}, "[41]": {"target": "Protein kinase C beta type (Homo sapiens) (UniProt P05771)", "sequence (P05771 2-671 limits assumed)": "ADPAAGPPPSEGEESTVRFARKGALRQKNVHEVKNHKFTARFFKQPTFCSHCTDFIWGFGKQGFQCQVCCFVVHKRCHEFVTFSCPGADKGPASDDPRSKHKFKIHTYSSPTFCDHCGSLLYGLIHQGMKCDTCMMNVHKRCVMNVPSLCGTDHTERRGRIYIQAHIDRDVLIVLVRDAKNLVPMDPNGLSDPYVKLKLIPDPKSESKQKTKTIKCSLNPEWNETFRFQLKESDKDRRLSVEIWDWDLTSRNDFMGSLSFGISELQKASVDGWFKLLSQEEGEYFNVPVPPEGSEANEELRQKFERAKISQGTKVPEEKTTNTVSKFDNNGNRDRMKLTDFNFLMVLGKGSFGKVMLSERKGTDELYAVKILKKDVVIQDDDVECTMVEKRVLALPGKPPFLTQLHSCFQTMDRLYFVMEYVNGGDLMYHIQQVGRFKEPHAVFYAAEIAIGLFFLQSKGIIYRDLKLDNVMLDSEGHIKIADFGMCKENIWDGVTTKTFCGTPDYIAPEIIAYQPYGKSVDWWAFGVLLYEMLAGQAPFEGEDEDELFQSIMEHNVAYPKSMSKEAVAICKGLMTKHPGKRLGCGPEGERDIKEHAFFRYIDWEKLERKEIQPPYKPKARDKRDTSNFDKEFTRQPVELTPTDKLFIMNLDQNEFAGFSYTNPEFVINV", "test": "Inhibition of PKC-beta-2 at 20 uM"}, "[42]": {"target": "Mitogen-activated protein kinase 9 (Homo sapiens) (UniProt P45984)", "test": "Inhibition of JNK2-alpha-2 at 20 uM"}, "[43]": {"test": "Inhibition of JNK1-alpha at 20 uM"}, "[44]": {"test": "Oral bioavailability in rat at 10 mg/kg after 24 hrs", "type": "ADME, organism-based", "settings": "in vivo"}, "[45]": {"target": "Cyclin-dependent kinase 2 (Homo sapiens) (UniProt P24941)", "test": "Inhibition of CDK2 at 20 uM"}, "[46]": {"target": "Mitogen-activated protein kinase 14 (Homo sapiens) (UniProt Q16539)", "test": "Inhibition of Sapk2-alpha at 20 uM"}, "Caco-2": {"tested_on": "Caco-2", "test": "Permeability from apical to basolateral side of human Caco-2 cell membrane", "type": "ADME, cell-based"}}, "note": "Activity calls are given as the source filed them. The rule behind the calls is not given here."}
{"smiles": "c1ccc(-c2nn3c(c2-c2ccnc4cc(OCCN5CCOCC5)ccc24)CCC3)nc1", "values": [{"measurement": "inhibition", "setting": "[1]", "value": "< 50", "unit": "%"}, {"measurement": "inhibition", "setting": "[2]", "value": "< 50", "unit": "%"}, {"measurement": "AUC at 24 h", "setting": "[3]", "value": 1000, "unit": "ng·h/mL"}, {"measurement": "inhibition", "setting": "[4]", "value": "< 50", "unit": "%"}, {"measurement": "Activity", "setting": "Mus musculus [5]", "value": 56, "unit": "%"}, {"measurement": "Stability", "setting": "[6]", "value": 58, "unit": "%"}, {"measurement": "inhibition", "setting": "[7]", "value": "< 50", "unit": "%"}, {"measurement": "inhibition", "setting": "[8]", "value": "< 50", "unit": "%"}, {"measurement": "inhibition", "setting": "[9]", "value": "< 50", "unit": "%"}, {"measurement": "inhibition", "setting": "[10]", "value": "< 50", "unit": "%"}, {"measurement": "inhibition", "setting": "[11]", "value": "< 50", "unit": "%"}, {"measurement": "Activity", "setting": "MX1", "value": "Active"}, {"measurement": "inhibition", "setting": "[12]", "value": "< 50", "unit": "%"}, {"measurement": "inhibition", "setting": "[13]", "value": "< 50", "unit": "%"}, {"measurement": "inhibition", "setting": "[14]", "value": 68, "unit": "%"}, {"measurement": "inhibition", "setting": "[15]", "value": "< 50", "unit": "%"}, {"measurement": "inhibition", "setting": "[16]", "value": 47, "unit": "%"}, {"measurement": "inhibition", "setting": "[17]", "value": "< 50", "unit": "%"}, {"measurement": "inhibition", "setting": "[18]", "value": 58, "unit": "%"}, {"measurement": "IC50", "setting": "NIH3T3", "value": 210, "unit": "nM"}, {"measurement": "inhibition", "setting": "[19]", "value": 69, "unit": "%"}, {"measurement": "inhibition", "setting": "[20]", "value": "< 50", "unit": "%"}, {"measurement": "EC50", "setting": "Mus musculus [21]", "value": 236, "unit": "nM"}, {"measurement": "inhibition", "setting": "[22]", "value": "< 50", "unit": "%"}, {"measurement": "inhibition", "setting": "[23]", "value": 80, "unit": "%"}, {"measurement": "inhibition", "setting": "[24]", "value": "< 50", "unit": "%"}, {"measurement": "inhibition", "setting": "[25]", "value": "< 50", "unit": "%"}, {"measurement": "inhibition in vivo at 75 mg/kg", "setting": "Mus musculus [26]", "value": 48, "unit": "%"}, {"measurement": "inhibition", "setting": "[27]", "value": "< 50", "unit": "%"}, {"measurement": "inhibition", "setting": "[28]", "value": "< 50", "unit": "%"}, {"measurement": "inhibition", "setting": "[29]", "value": "< 50", "unit": "%"}, {"measurement": "inhibition", "setting": "[30]", "value": 31, "unit": "%"}, {"measurement": "inhibition", "setting": "[31]", "value": "< 50", "unit": "%"}, {"measurement": "inhibition", "setting": "[32]", "value": "< 50", "unit": "%"}, {"measurement": "inhibition", "setting": "[33]", "value": "< 50", "unit": "%"}, {"measurement": "inhibition", "setting": "[34]", "value": "< 50", "unit": "%"}, {"measurement": "inhibition", "setting": "[35]", "value": "< 50", "unit": "%"}, {"measurement": "inhibition", "setting": "[36]", "value": "< 50", "unit": "%"}, {"measurement": "Stability", "setting": "Liver microsomes", "value": 27, "unit": "%"}, {"measurement": "inhibition", "setting": "[37]", "value": "< 50", "unit": "%"}, {"measurement": "inhibition", "setting": "[38]", "value": "< 50", "unit": "%"}, {"measurement": "inhibition", "setting": "[39]", "value": "< 50", "unit": "%"}, {"measurement": "inhibition", "setting": "[40]", "value": "< 50", "unit": "%"}, {"measurement": "inhibition", "setting": "[41]", "value": "< 50", "unit": "%"}, {"measurement": "inhibition", "setting": "[42]", "value": "< 50", "unit": "%"}, {"measurement": "inhibition", "setting": "[43]", "value": "< 50", "unit": "%"}, {"measurement": "bioavailability", "setting": "[44]", "value": 21, "unit": "%"}, {"measurement": "inhibition", "setting": "[45]", "value": "< 50", "unit": "%"}, {"measurement": "inhibition", "setting": "[46]", "value": 89, "unit": "%"}, {"measurement": "permeability", "setting": "Caco-2", "value": 28, "unit": "%"}]}
